Target: T1, FYN A (Homo sapiens, UniProt P06241)
T1 construct: purchased Thermo Fisher Scientific (Life Technologies) SelectScreen
Assay: SelectScreen LanthaScreen
Type: binding
Settings: read-out: % displacement
Outline: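 SelectScreen broad panel; activity (Z'LYTE, Adapta) plus binding formats. ATP: Km app for CSF1R Z'LYTE; 10 for CAMK1 Adapta. Readout = % per kinase.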

T1 sequence (P06241 whole entry): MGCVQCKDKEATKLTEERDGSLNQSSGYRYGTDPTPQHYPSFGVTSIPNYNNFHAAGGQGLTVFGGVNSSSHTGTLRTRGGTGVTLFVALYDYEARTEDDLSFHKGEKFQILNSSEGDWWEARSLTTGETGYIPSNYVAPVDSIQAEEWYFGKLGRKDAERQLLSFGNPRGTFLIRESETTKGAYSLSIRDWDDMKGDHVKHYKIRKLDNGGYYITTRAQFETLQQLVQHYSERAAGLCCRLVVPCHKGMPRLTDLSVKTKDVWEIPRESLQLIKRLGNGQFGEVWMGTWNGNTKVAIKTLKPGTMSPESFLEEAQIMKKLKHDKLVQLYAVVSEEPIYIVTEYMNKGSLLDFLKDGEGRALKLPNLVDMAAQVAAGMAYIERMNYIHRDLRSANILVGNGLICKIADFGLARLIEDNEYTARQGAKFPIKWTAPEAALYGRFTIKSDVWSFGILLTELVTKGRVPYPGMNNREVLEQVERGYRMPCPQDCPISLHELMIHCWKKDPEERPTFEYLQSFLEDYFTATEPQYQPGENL

## CN(C(=O)CN1CCOCC1)c1ccc2sc3c(-c4cccc5c(=O)cc(N6CC7CCC(C6)O7)oc45)cccc3c2c1 [NU5455]
  inhibition at 1 µM: 3.3%

Reference: paper PMC6934184, “Selective DNA-PKcs inhibition extends the therapeutic index of localized radiotherapy and chemotherapy” (The Journal of Clinical Investigation, 2019)
